69 compounds from patent US8981111B2 (priority 2008, dated 2015) can be followed below.

The structures appear in SMILES notation.

For orientation: chromatographic logP means lipophilicity estimated from chromatographic retention. Low readings indicate lower lipophilicity, high ones higher lipophilicity.

A short description of one series: log P (HPLC/MS data of the preparation examples). Conditions: HPLC, method [a]: pH 2.3 with 0.1% phosphoric acid and acetonitrile as eluent.
Regarding `CC(C)CC(=O)Nc1cccc(CON=C(c2cccs2)c2ncnn2C)n1` [Example 396], the log p is 2.78^[a];.

The same series, now with this note: LC-MS, method [b]: pH 2.7 with 0.1% formic acid in water and acetonitrile, linear gradient 10% to 95% acetonitrile.
With `Cn1ccnc1C(=NOCc1cccc(NC(=O)C2CCCCO2)n1)c1ccccc1` (stereo not shown) [Example 338], the log p was 1.93^[b].
For `COCCOC(=O)Nc1cccc(CON=C(c2ccccc2)c2nccn2C)n1` [Example 339], the log p is 1.34^[b].
Still for that read-out and setting: the figure for `Cn1ccnc1C(=NOCc1cccc(NC(=O)C2CCCCO2)n1)c1cccc(F)c1` (stereo not shown) [Example 340] is 2.17^[b]; for `COCCOC(=O)Nc1cccc(CON=C(c2cccc(F)c2)c2nccn2C)n1` [Example 341] it is 1.66^[b].
Same read-out and setting: the figure for `CCCCSC(=O)Nc1cccc(CON=C(c2cccc(F)c2)c2nccn2C)n1` [Example 342] is 2.88^[b].
Regarding `Cn1ccnc1C(=NOCc1cccc(NC(=O)OCCF)n1)c1cccc(F)c1` [Example 343], the log p was 1.75^[b].
In the case of `CCC(C)COC(=O)Nc1cccc(CON=C(c2cccc(F)c2)c2nccn2C)n1` (stereo not shown) [Example 344], the log p was 2.82^[b].
Still for that read-out and setting: to `CC(C)COC(=O)Nc1cccc(CON=C(c2cccc(F)c2)c2nccn2C)n1` [Example 345] belongs 2.51^[b]; to `CC(C)CCOC(=O)Nc1cccc(CON=C(c2cccc(F)c2)c2nccn2C)n1` [Example 346], 2.82^[b].
Regarding `Cn1ccnc1C(=NOCc1cccc(NC(=O)OCC(Cl)(Cl)Cl)n1)c1cccc(F)c1` [Example 347], the log p is 2.73^[b].
With `CC(C)CCC(=O)Nc1cccc(CON=C(c2cccc(F)c2)c2nccn2C)n1` [Example 348], the log p is 2.42^[b].
As for `COC(C(=O)Nc1cccc(CON=C(c2cccc(F)c2)c2nccn2C)n1)c1ccccc1` (stereo not shown) [Example 349], the log p is 2.42^[b].
On the same count and under the same terms, the figure for `Cc1ncoc1C(=NOCc1csc(N)n1)c1ccccc1` [Example 351, 4-[({[(4-methyl-1,3-oxazol-5-yl)(phenyl)methylene]amino-}oxy)methyl]-1,3-thiazol-2-amine] is 1.46^[b].
The same measure, in the same setting: the figure for `Cc1ncoc1C(=NOCc1cccc(N2C(=O)c3ccccc3C2=O)n1)c1ccccc1` [Example 353] is 3.09^[b]; for `CCCCC#Cc1cccc(CON=C(c2ccccc2)c2nncn2C)n1` [Example 354] it is 3.23^[b]; for `COc1ccc(C(=NOCc2cccc(N3C(=O)c4ccccc4C3=O)n2)c2ncc(C(F)(F)F)cc2Cl)cc1Br` [Example 356] it is 4.78^[b].
On to `COc1ccc(C(=NOCc2csc(N)n2)c2ncc(C(F)(F)F)cc2Cl)cc1Br` [Example 357], for which the log p was 2.8^[b].
Still for that read-out and setting: the figure for `COc1ccc(C(=NOCc2cccc(N)n2)c2ncc(C(F)(F)F)cc2Cl)cc1Br` [Example 358] is 2.54^[b]; for `COc1ccc(C(=NOCc2cccc(NC(=O)C(C)(C)C)n2)c2ncc(C(F)(F)F)cc2Cl)cc1Br` [Example 359] it is 5.2^[b].
The same measure, in the same setting: the figure for `COc1ccc(C(=NOCc2cccc(NC(=O)C3CC3)n2)c2ncc(C(F)(F)F)cc2Cl)cc1Br` [Example 360] is 4.54^[b]; for `COc1ccc(C(=NOCc2cccc(NC(=O)C(F)(F)F)n2)c2ncc(C(F)(F)F)cc2Cl)cc1Br` [Example 361] it is 4.97^[b]; for `COCCOCC(=O)Nc1cccc(CON=C(c2ccc(OC)c(Br)c2)c2ncc(C(F)(F)F)cc2Cl)n1` [Example 362] it is 4.51^[b].
Regarding `CCCCCOC(=O)Nc1cccc(CON=C(c2ccc(OC)c(Br)c2)c2ncc(C(F)(F)F)cc2Cl)n1` [Example 363], the log p was 6.13^[b].
Same read-out and setting: the figure for `COc1ccc(C(=NOCc2cccc(NC(=O)c3ccccc3)n2)c2ncc(C(F)(F)F)cc2Cl)cc1Br` [Example 364] is 5.23^[b].
On the same count and under the same terms, the figure for `COc1ccc(C(=NOCc2cccc(NC(=O)Cc3ccccc3)n2)c2ncc(C(F)(F)F)cc2Cl)cc1Br` [Example 365] is 5.08^[b].
Same read-out and setting: the figure for `CCCCCCCCC(=O)Nc1cccc(CON=C(c2ccc(OC)c(Br)c2)c2ncc(C(F)(F)F)cc2Cl)n1` [Example 366] is 6.65^[b]; for `COc1ccc(C(=NOCc2cccc(NC(=O)C(C)C)n2)c2ncc(C(F)(F)F)cc2Cl)cc1Br` [Example 367] it is 4.73^[b]; for `CCCCCC(=O)Nc1cccc(CON=C(c2ccc(OC)c(Br)c2)c2ncc(C(F)(F)F)cc2Cl)n1` [Example 368] it is 5.44^[b].
`CCCCCCC(=O)Nc1cccc(CON=C(c2ccc(OC)c(Br)c2)c2ncc(C(F)(F)F)cc2Cl)n1` [Example 369]: the log p was 5.82^[b].
As to `COc1ccc(C(=NOCc2cccc(NC(=O)CC(C)C)n2)c2ncc(C(F)(F)F)cc2Cl)cc1Br` [Example 370], the log p was 5.03^[b].
On the same count and under the same terms, to `CCCCCOC(=O)Nc1nc(CON=C(c2ccc(OC)c(Br)c2)c2ncc(C(F)(F)F)cc2Cl)cs1` [Example 371] belongs 5.59^[b]; to `Cc1cnc(C)c(C(=NOCc2cccc(N3C(=O)c4ccccc4C3=O)n2)c2ccccc2)n1` [Example 372], 3.35^[b]; to `Cc1cnc(C)c(C(=NOCc2cccc(N)n2)c2ccccc2)n1` [Example 373], 1.31^[b].
Same read-out and setting: to `CCCOC(=O)Nc1cccc(CON=C(c2ccccc2)c2nc(C)cnc2C)n1` [Example 374] belongs 3.81^[b]; to `CCCCCCOC(=O)Nc1cccc(CON=C(c2ccccc2)c2nc(C)cnc2C)n1` [Example 375], 5.2^[b].
Same read-out and setting: the figure for `CCCCOC(=O)Nc1cccc(CON=C(c2ccccc2)c2nc(C)cnc2C)n1` [Example 376] is 4.29^[b]; for `CCCCCC(=O)Nc1cccc(CON=C(c2ccccc2)c2nc(C)cnc2C)n1` [Example 377] it is 4.09^[b]; for `CCCCCOC(=O)Nc1cccc(CON=C(c2ccccc2)c2nc(C)cnc2C)n1` [Example 378] it is 4.75^[b].
For the compound `CCCCC(=O)Nc1cccc(CON=C(c2ccccc2)c2nc(C)cnc2C)n1` [Example 379], the log p is 3.65^[b].
On to `CCCCCCC(=O)Nc1cccc(CON=C(c2ccccc2)c2nc(C)cnc2C)n1` [Example 380], for which the log p was 4.54^[b].
Still for that read-out and setting: the figure for `CCCC(=O)Nc1cccc(CON=C(c2ccccc2)c2nc(C)cnc2C)n1` [Example 381] is 3.21^[b]; for `Nc1ccnc(CON=C(c2ccsc2)c2snc(Cl)c2Cl)n1` [Example 382] it is 1.86^[b]; for `Nc1nc(CON=C(c2ccsc2)c2snc(Cl)c2Cl)cs1` [Example 383] it is 2.51^[b].
Turning to `CC(C)(C)C(=O)Nc1ccnc(CON=C(c2ccsc2)c2snc(Cl)c2Cl)n1` [Example 384], the log p was 4.67^[b].
For `Cn1ccnc1C(=NOCc1cccc(N2C(=O)c3ccccc3C2=O)n1)c1cccs1` [Example 385], the log p was 1.78^[b].
On the same count and under the same terms, the figure for `CCCCCC(=O)Nc1ccnc(CON=C(c2cccs2)c2nccn2C)n1` [Example 388] is 1.93^[b]; for `CC(C)CC(=O)Nc1ccnc(CON=C(c2cccs2)c2nccn2C)n1` [Example 389] it is 1.59^[b]; for `Cn1ccnc1C(=NOCc1nccc(NC(=O)C(C)(C)C)n1)c1cccs1` [Example 390] it is 1.56^[b].
Still for that read-out and setting: the figure for `Cn1ncnc1C(=NOCc1cccc(N)n1)c1cccs1` [Example 391] is 0.82^[b].
Still for that read-out and setting: the figure for `Cn1ncnc1C(=NOCc1cccc(NC(=O)CCc2ccccc2)n1)c1cccs1` [Example 392] is 3.17^[b]; for `CCCCCC(=O)Nc1cccc(CON=C(c2cccs2)c2ncnn2C)n1` [Example 393] it is 3.23^[b]; for `CCCCCOC(=O)Nc1cccc(CON=C(c2cccs2)c2ncnn2C)n1` [Example 394] it is 3.82^[b].
With `Cn1ncnc1C(=NOCc1cccc(NC(=O)C(C)(C)C)n1)c1cccs1` [Example 395], the log p was 2.82^[b].
The same measure, in the same setting: the figure for `CC(C)CC(=O)Nc1cccc(CON=C(c2cccs2)c2ncnn2C)n1` [Example 396] is 2.78^[b]; for `Cn1ncnc1C(=NOCc1nccc(N)n1)c1cccs1` [Example 397] it is 0.47^[b]; for `Cn1ncnc1C(=NOCc1csc(N)n1)c1cccs1` [Example 398] it is 0.92^[b].
On the same count and under the same terms, to `CCCCCC(=O)Nc1nc(CON=C(c2cccs2)c2ncnn2C)cs1` [Example 399] belongs 3.23^[b]; to `CCCCCOC(=O)Nc1nc(CON=C(c2cccs2)c2ncnn2C)cs1` [Example 400], 3.53^[b].
On the same count and under the same terms, the figure for `Cn1ncnc1C(=NOCc1csc(NC(=O)C(C)(C)C)n1)c1cccs1` [Example 401] is 2.8^[b]; for `Cn1ncnc1C(=NOCc1csc(NC(=O)Cc2ccccc2)n1)c1cccs1` [Example 402] it is 2.82^[b].
For `Cn1ncnc1C(=NOCc1csc(NC(=O)CCc2ccccc2)n1)c1cccs1` [Example 403], the log p was 3.09^[b].
Still for that read-out and setting: the figure for `CC(C)CC(=O)Nc1nc(CON=C(c2cccs2)c2ncnn2C)cs1` [Example 404] is 2.73^[b]; for `CCCCCC(=O)Nc1ccnc(CON=C(c2cccs2)c2ncnn2C)n1` [Example 405] it is 3^[b].
Same read-out and setting: to `CCCCCOC(=O)Nc1ccnc(CON=C(c2cccs2)c2ncnn2C)n1` [Example 406] belongs 3.31^[b]; to `Cn1ncnc1C(=NOCc1nccc(NC(=O)C(C)(C)C)n1)c1cccs1` [Example 407], 2.59^[b]; to `Cn1ncnc1C(=NOCc1nccc(NC(=O)Cc2ccccc2)n1)c1cccs1` [Example 408], 2.64^[b].

Still in this series, the particulars now being: LC-MS, method [c]: pH 7.8 with 0.001 molar ammonium hydrogen carbonate solution in water, linear gradient 10% to 95% acetonitrile.
For `Cn1ccnc1C(=NOCc1nccc(N)n1)c1cccs1` [Example 386], the log p is 1.13^[c].
Same read-out and setting: to `Cn1ccnc1C(=NOCc1cccc(N)n1)c1cccs1` [Example 387] belongs 1.74^[c].

The series is the same for the next values; noted with them: reversed phase HPLC column, pH 2.7.
Turning to `Cc1ncoc1C(=NOCc1cccc(N2C(=O)c3ccccc3C2=O)n1)c1ccccc1` [Example 352, 2-{6-[({[(4-methyl-1,3-oxazol-5-yl)(phenyl)methylene]amino}oxy)methyl]pyridin-2-yl}-1H-isoindole-1,3(2H)-dione], the chromatographic logP stood at 3.25.
